The values that follow come from ChEMBL document CHEMBL1909046, “DrugMatrix in vitro pharmacology data”.

The target of data set [1] is T1, B2 bradykinin receptor (Homo sapiens, UniProt P30411). Also: in other assays of this panel Not Active means under 50% inhibition at 10 µM.
T1 sequence (P30411 whole entry): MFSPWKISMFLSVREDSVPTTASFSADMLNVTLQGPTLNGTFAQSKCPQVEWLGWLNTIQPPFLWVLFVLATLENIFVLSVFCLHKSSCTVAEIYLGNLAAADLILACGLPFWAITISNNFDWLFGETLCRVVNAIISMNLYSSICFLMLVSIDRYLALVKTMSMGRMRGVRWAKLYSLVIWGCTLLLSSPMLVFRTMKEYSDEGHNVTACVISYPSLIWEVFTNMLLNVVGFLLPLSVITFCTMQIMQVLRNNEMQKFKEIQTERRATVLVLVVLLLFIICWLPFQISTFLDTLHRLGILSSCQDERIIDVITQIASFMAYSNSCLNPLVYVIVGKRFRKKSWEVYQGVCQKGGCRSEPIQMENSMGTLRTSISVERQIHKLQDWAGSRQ
The class given is cell membranes, Membrane. As to conditions: chem-1.

Data set [2] concerns the target T2, Cholecystokinin receptor type A (Homo sapiens, UniProt P32238). Also: in other assays of this panel Not Active means under 50% inhibition at 10 µM.
T2 sequence (P32238 whole entry): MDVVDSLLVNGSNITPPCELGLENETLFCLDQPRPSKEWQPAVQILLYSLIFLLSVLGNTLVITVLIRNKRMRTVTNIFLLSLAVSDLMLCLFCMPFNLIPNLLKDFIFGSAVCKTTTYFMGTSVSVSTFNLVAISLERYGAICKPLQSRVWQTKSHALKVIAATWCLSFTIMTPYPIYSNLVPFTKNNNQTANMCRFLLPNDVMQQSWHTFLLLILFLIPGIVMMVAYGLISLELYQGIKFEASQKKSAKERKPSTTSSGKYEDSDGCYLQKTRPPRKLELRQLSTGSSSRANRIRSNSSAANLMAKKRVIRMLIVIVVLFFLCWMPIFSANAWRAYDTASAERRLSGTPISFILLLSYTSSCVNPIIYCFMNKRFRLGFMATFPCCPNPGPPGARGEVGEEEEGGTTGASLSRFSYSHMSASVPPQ
The class given is cell membranes, Membrane. As to conditions: 1321-n1.

Data set [3] in a line: DRUGMATRIX: GABAA, Chloride Channel, TBOB radioligand binding (ligand: [3H] TBOB). The class given is cell membranes, Rattus norvegicus, Wistar, Cerebral cortex, Membrane. As to conditions: Not Active = under 50% inhibition at 10 µM.
Data set [4] deals with Nitric oxide synthase 1 (Rattus norvegicus, UniProt P29476). It counts as tissue-based, Cerebellum.
Sequence of Nitric oxide synthase 1 (P29476 whole entry): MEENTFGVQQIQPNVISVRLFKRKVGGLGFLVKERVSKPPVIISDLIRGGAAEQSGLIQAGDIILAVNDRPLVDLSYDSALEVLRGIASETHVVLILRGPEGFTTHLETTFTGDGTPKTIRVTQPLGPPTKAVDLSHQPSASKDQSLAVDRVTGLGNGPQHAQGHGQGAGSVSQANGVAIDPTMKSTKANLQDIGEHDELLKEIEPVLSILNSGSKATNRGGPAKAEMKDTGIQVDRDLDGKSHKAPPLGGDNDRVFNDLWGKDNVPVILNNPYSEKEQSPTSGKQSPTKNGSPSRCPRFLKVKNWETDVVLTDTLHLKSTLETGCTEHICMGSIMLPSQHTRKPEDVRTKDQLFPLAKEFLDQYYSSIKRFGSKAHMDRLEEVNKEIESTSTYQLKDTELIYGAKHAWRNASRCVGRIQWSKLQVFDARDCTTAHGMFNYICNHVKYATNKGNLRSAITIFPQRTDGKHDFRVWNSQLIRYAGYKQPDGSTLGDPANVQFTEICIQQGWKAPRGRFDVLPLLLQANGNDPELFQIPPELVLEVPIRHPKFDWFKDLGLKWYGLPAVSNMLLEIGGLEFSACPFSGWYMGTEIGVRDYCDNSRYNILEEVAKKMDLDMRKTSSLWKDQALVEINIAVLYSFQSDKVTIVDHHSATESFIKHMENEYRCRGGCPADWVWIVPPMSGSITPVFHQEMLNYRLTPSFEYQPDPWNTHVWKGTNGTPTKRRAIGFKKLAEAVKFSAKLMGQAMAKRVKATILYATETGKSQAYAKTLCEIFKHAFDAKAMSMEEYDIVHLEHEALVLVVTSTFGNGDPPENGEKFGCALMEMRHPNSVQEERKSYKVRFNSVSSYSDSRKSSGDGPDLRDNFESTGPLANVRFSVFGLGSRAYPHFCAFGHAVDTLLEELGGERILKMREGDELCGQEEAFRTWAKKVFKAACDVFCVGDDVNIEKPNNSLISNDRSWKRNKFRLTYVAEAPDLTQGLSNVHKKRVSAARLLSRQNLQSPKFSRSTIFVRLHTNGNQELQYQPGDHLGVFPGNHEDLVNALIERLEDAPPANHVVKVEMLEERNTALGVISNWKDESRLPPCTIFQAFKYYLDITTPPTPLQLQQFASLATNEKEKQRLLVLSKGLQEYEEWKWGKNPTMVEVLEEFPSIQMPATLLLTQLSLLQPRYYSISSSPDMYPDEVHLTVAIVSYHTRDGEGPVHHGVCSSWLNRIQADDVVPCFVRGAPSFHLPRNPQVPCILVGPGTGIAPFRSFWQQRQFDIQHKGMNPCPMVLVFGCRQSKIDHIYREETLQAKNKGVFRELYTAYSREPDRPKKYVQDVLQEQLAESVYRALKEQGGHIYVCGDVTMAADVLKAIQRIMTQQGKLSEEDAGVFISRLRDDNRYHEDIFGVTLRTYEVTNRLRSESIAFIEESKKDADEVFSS
The target of data set [5] is T3, Progesterone receptor (Bos taurus, UniProt Q690N0).
T3 sequence (Q690N0 whole entry): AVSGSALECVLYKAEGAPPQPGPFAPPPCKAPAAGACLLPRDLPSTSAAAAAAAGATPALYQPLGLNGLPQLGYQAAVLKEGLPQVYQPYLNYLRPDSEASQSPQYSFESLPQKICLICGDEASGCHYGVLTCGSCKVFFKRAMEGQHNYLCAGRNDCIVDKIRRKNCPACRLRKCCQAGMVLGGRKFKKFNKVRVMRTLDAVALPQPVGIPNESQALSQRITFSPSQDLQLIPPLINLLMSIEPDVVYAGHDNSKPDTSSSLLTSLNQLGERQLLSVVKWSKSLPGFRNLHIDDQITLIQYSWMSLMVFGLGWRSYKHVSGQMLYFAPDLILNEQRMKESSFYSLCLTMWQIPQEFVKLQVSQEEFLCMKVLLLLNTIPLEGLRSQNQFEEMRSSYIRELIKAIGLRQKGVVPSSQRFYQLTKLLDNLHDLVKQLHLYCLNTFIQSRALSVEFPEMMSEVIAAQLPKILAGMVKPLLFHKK
As to the kind of experiment: DRUGMATRIX: Progesterone radioligand binding (ligand: [3H] R-5020). It counts as tissue-based, Uterus. As to conditions: Not Active = under 50% inhibition at 10 µM.

Data set [6] has as its target Mitogen-activated protein kinase 3 (Homo sapiens, UniProt P27361). The data set is described as follows: DRUGMATRIX: Protein Serine/Threonine Kinase, ERK1 enzyme inhibition (substrate: Myelin Basic Protein). As to conditions: Not Active = under 50% inhibition at 10 µM. Also noted: species or system Escherichia coli.
In data set [7] the target is T4, Cytochrome P450 2A6 (Homo sapiens, UniProt P11509). Also: in other assays of this panel Not Active means under 50% inhibition at 10 µM.
T4 sequence (P11509 whole entry): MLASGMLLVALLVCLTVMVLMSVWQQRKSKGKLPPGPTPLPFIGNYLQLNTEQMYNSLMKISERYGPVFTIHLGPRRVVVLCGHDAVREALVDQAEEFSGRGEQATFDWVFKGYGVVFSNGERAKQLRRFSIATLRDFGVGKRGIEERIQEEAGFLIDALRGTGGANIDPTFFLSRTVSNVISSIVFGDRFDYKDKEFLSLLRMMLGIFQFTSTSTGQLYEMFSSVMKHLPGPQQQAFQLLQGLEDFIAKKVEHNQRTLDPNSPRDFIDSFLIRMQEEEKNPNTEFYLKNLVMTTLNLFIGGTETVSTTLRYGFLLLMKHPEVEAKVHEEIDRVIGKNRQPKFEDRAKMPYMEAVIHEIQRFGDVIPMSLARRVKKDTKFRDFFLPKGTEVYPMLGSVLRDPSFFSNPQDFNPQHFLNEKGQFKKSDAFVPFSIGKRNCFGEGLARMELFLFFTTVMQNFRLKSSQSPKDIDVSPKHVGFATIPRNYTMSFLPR
As to conditions: bti-tn-5b1-4.

Sequence of Mitogen-activated protein kinase 3 (P27361 whole entry): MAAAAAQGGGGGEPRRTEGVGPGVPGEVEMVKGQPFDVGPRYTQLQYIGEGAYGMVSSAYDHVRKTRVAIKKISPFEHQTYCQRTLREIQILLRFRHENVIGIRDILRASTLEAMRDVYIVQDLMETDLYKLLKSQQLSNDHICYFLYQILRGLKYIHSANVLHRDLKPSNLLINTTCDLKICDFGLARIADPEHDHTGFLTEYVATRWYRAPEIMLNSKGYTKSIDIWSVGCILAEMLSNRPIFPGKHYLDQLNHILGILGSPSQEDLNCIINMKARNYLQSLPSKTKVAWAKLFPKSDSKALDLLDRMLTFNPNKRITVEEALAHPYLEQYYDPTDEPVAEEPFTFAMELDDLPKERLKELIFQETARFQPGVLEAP

On to `CCOC(=O)c1ccc(N)cc1` [BENZOCAINE], for which the IC50 entry in data set [1], in data set [2], in data set [3], in data set [4], in data set [5] and in data set [6] was “Not Active” throughout. In addition, in data set [7], the IC50 entry is on record as “Not Active”. Further, the Ki result in data set [3] and in data set [7] was “Not Active” throughout.

Take `CC(C)(Oc1ccc(CCNC(=O)c2ccc(Cl)cc2)cc1)C(=O)O` [BEZAFIBRATE]: the IC50 result in data set [1], in data set [2], in data set [3], in data set [4], in data set [5] and in data set [6] was “Not Active” in each case. In data set [7], the IC50 result is reported as “Not Active”. Besides, the inhibition constant Ki result in data set [3] and in data set [7] was “Not Active” throughout.

As to `CCCC[C@@H](CC)COC(=O)c1ccccc1C(=O)OC[C@@H](CC)CCCC` [BIS(2-ETHYLHEXYL)PHTHALATE], the IC50 entry in data set [1], in data set [2], in data set [3], in data set [4], in data set [5] and in data set [6] was “Not Active” throughout. Further, the half-maximal inhibitory concentration (IC50) entry in data set [7] was “Not Active”. Further, the Ki entry in data set [3] and in data set [7] was “Not Active” each time.

As for `Oc1c(Cl)cc(Cl)cc1Sc1cc(Cl)cc(Cl)c1O` [BITHIONOL], the IC50 entry in data set [1], in data set [2], in data set [3], in data set [4], in data set [5] and in data set [6] was “Not Active” in each case. In addition, in data set [7], the IC50 result is reported as “Not Active”. Further, the Ki result in data set [3] and in data set [7] was “Not Active” in each case.

As to `CCCCOC(=O)c1ccc(N)cc1` [BUTAMBEN], the IC50 entry in data set [1], in data set [2], in data set [3], in data set [4], in data set [5] and in data set [6] was “Not Active” throughout. For the same molecule, the IC50 entry in data set [7] is on record as “Not Active”. Moreover, the Ki entry in data set [3] and in data set [7] was “Not Active” each time.

For `CC(=O)O[C@]1(C(C)=O)CC[C@H]2[C@@H]3C=C(Cl)C4=CC(=O)CC[C@]4(C)[C@H]3CC[C@@]21C` [CHLORMADINONE ACETATE], the half-inhibitory concentration (IC50) result in data set [1] was “Not Active”; in data set [2], “Not Active”; in data set [3], “Not Active”; in data set [4] it was “Not Active”; in data set [5] (read-out: IC50) it was 5.26 nM; in data set [6] it was “Not Active”. Also, the IC50 result in data set [7] is given as “Not Active”. For the same molecule, the Ki entry in data set [3] is “Not Active”; in data set [5] (read-out: Ki), 0.687 nM; in data set [7], “Not Active”.

On to `O=C1CCc2cc(OCCCCc3nnnn3C3CCCCC3)ccc2N1` [CILOSTAZOL], for which the IC50 result in data set [1], in data set [2], in data set [3], in data set [4], in data set [5] and in data set [6] was “Not Active” throughout. Further, the concentration for half-maximal inhibition (IC50) entry in data set [7] was “Not Active”. In addition, the Ki entry in data set [3] and in data set [7] was “Not Active” throughout.

In the case of `O=C(O)c1cn(C2CC2)c2cc(N3CCNCC3)c(F)cc2c1=O` [CIPROFLOXACIN], the IC50 result in data set [1], in data set [2], in data set [3], in data set [4], in data set [5] and in data set [6] was “Not Active” in each case. Moreover, the half-maximal inhibitory concentration (IC50) entry in data set [7] was “Not Active”. In addition, the Ki entry in data set [3] and in data set [7] was “Not Active” throughout.

Take `CN(C)CCCC1(c2ccc(F)cc2)OCc2cc(C#N)ccc21` (stereo not drawn) [CITALOPRAM]: the concentration for half-maximal inhibition (IC50) entry in data set [1], in data set [2], in data set [3], in data set [4], in data set [5] and in data set [6] was “Not Active” throughout. The IC50 result in data set [7] is reported as “Not Active”. For the same molecule, the inhibition constant (Ki) result in data set [3] and in data set [7] was “Not Active” in each case.

Take `COC(=O)[C@H](c1ccccc1Cl)N1CCc2sccc2C1` [CLOPIDOGREL]: the IC50 result in data set [1], in data set [2], in data set [3], in data set [4], in data set [5] and in data set [6] was “Not Active” throughout. Moreover, the IC50 entry in data set [7] is listed as “Not Active”. Moreover, the Ki entry in data set [3] and in data set [7] was “Not Active” throughout.

With `C[C@]12CCC(=O)C=C1CC[C@@H]1[C@@H]2C(=O)C[C@@]2(C)[C@H]1CC[C@]2(O)C(=O)CO` [CORTISONE], the half-inhibitory concentration (IC50) result in data set [1], in data set [2], in data set [3], in data set [4], in data set [5] and in data set [6] was “Not Active” each time. For the same molecule, the half-inhibitory concentration (IC50) entry in data set [7] was “Not Active”. Further, the Ki entry in data set [3] and in data set [7] was “Not Active” each time.

Regarding `Cc1ccccc1N1CCN(CCc2nnc3n2CCCC3)CC1` [DAPIPRAZOLE], the IC50 result in data set [1], in data set [2], in data set [3], in data set [4], in data set [5] and in data set [6] was “Not Active” throughout. Also, the IC50 result in data set [7] is reported as “Not Active”. In addition, the Ki result in data set [3] and in data set [7] was “Not Active” in each case.

With `CC1=Nc2ccc(Cl)cc2S(=O)(=O)N1` [DIAZOXIDE], the IC50 entry in data set [1], in data set [2], in data set [3], in data set [4], in data set [5] and in data set [6] was “Not Active” throughout. For the same molecule, the IC50 entry in data set [7] was “Not Active”. For the same molecule, the inhibitory constant (Ki) result in data set [3] and in data set [7] was “Not Active” each time.
